For data set [1], the system named is Human urinary bladder transitional cell papilloma RT4 cells.
Experimental: 3D Cell Culture: Human urinary bladder transitional cell papilloma RT4 cells were cultured in McCoy's 5A (Modified) Medium, supplemented with FBS (10%) and penicillin-streptomycin solution (1%), in a 37° C. and 5% CO2 atmosphere. The cells were split every 4 days at a 1:2 ratio. To obtain 3D RT4 cell cultures, 8-well ibidi dishes were pre-coated with 23 μL of Matrigel™ (5 mg/mL) and incubated at 37° C. for 30 minutes, allowing the gel to form. Next, 30 μL of a suspension of RT4 cells at a density of 5×10^6 cells/mL was spread evenly in each well and the dishes were incubated for 30 minutes at 37° C. Finally, 150 μL of RT4 McCoy's medium containing 10% of Matrigel™ was added. The cultures were allowed to grow for 7 days before the experiments, changing the medium every 2 days.
Cytotoxicity Assays: The viability of RT4 3D cultures was quantified using the Alamar Blue assay and visualized using the LIVE/DEAD viability kit following manufacturer's instructions. […] After, the cultures were washed with medium, kept resting for 24 hours and viability was investigated according to manufacturer's instructions.
The spheroids were obtained by seeding RT4 cells in dishes coated with Matrigel™ which resembles the extracellular matrix and provides a 3D environment for cell growth. Then, the cultures were allowed to proliferate for 7 days and spheroid growth was monitored every day. […] After that, the cultures were washed with medium and cell viability and proliferation was assessed using the Alamar Blue assay.
It was further investigated the viability of the spheroids when exposed to the nanomotors (MSNP-Ur/PEG), under a range of concentrations of urea and at different incubation periods. The spheroids were incubated with 12.5 μg/mL of bare nanomotors or antibody-modified nanomotors at 0 mM, 25 mM, 30 mM and 40 mM of urea, for 1, 2 and 4 hours. Next, the cultures were thoroughly washed with medium to remove nanomotors and uncatalyzed urea and kept for 24 hours before analysis. The effect of the nanomotors on bladder cancer spheroids' viability was visualized using the LIVE/DEAD® viability kit and quantified using the Alamar Blue assay (FIG. 3).
A short description of data set [2]: FRET/Cy3 imaging of DNA-switch micromotors by confocal laser scanning microscopy. The conditions noted are these: micromotors in PBS, pH 5 or pH 9. The procedure: To test the functionality of the switch once conjugated to the micromotors, FRET efficiency was monitored through a Leica-SP5 confocal laser scanning microscope (CSLM) equipped with a 63× oil immersion objective (FIG. 6B). For this, micromotors were suspended in PBS either at pH 5 or pH 9 and placed in a 8-well glass bottom dish for their analysis under CSLM. The emission of the donor (Cy3) was recorded using a 564 nm diode laser. The FRET image was obtained by exciting the Cy3 fluorophore and detecting the acceptor (Cy5) emission. Using a custom-made ImageJ plug-in, quantification of the FRET efficiency was achieved by calculating the FRET/Cy3 ratio.
The capability of micromotors to simultaneously record local pH changes produced while they are self-propelling was assessed by combining both optical tracking and FRET imaging using CSLM, where 25 s videos were recorded at 3FPS. In the absence of fuel, a mean FRET/Cy3 ratio of 1.8±0.09 (mean±standard error of the mean) was observed.
To gain insights into the instantaneous pH change around the micromotors from the initial moment of the reaction, micromotors were immobilized onto a glass surface using APTES as a coating agent to provide positive surface charges and stabilize the electrostatic interactions with the negatively charged micromotors. […]

A short description of data set [3]: Fluorescence (ratiometric FRET) pH titration of DNA switch in solution. Particulars: 50 nM DNA switch. The procedure:
Fluorescence measurements were carried out on a Cary Eclipse Fluorimeter (Varian), setting excitation wavelength to λex=530 nm (slitex=5 nm) and acquisition between 540 and 700 nm (slitem=5 nm) using quartz cuvettes of reduced volume (100 μL). All measurements were performed at T=25° C. in 10 mM HEPES. Switches were first diluted in HEPES 10 mM at the concentration of 1 μM. […]
The ratiometric FRET has been calculated as following:
Where FCyS is the maximum fluorescence emission of Cy5 (λem=670 nm) and FCy3 is the maximum fluorescence emission of Cy3 (λem=570 nm). The pH titration curves were obtained by plotting Rat. FRET vs hydronium ions concentration, and fitting the data with the following Langmuir-type equation: […]
Where Rat. FRETTRIPLEX and Rat. FRETDUPLEX represent the FRET signal of the switch in the triplex state (closed) and duplex state (open), respectively and where [H^+] represents the total concentration of hydrogen ions and
As a note, fluorophores employed here are not sensitive to pH in the range of pHs investigated (from pH 5.0 to pH 9.5) to avoid any interferences in the signal. It is important to note that this class of triplex-based switches show opening/closing kinetics sufficiently fast to allow the real time monitoring of pH variation (average time constant ˜100 ms).

Like-named read-outs stand apart in the source and are kept apart here.

Regarding `NC(N)=O` [Urea, urea], the “spheroid viability (biocompatibility)” value in data set [1] is “not affecting spheroid viability”.

`N` [ammonia]: the spheroid viability in data set [1] (20 mM ammonia) is listed as over 70%; in data set [1] (24 hours, all ammonia concentrations tested), over 70%. The “spheroid viability (biocompatibility)” value in data set [1] (24 hours incubation, range of concentrations) is given as “increased cytotoxic trend with increasing concentrations”. “control switch: non-pH responsive hairpin DNA, SEQ ID NO: 3, Cy3/Cy5 labelled; tested conjugated to micromotors (DNA TCCTTGTCTGTCTGTCTGTCTGAACGTTTTTCGTTC; DNA, backbone not given here; further chemistry not fully specified)”: the “FRET/Cy3 emission of switch-modified micromotors at different pH” value in data set [2] was “no significant differences”.

B1: DNA switch: triplex-forming single stranded DNA, SEQ ID NO: 1, labelled with Cy3 and Cy5 (nucleic acid)
DNA: TCCTTGTCTGTCTGTCTGTCTTTTTTGAAGAAGGAATTTATTCCTTCTTCGTTTGCTTCTTCCTT
modifications: DNA, backbone not given here; Cy3 and Cy5 labels, further chemistry not fully specified
B1: the FRET efficiency entry in data set [3] (acidic pH values) is recorded as “high FRET efficiency”. In addition, the FRET signal entry in data set [3] (pH of the solution increased (pH 5.0 to 9.5)) is on record as “gradual decrease”.

Values taken from patent publication US12636352B2, “Functionalized enzyme-powered nanomotors” (FUNDACIO INSTITUT DE BIOENGINYERIA DE CATALUNYA, priority 2018, dated 2026).
